Measurements: patent US6046218A, “Pyridine derivative and medicament containing the same as an effective ingredient” (SS Pharmaceutical Co., Ltd., priority 1996, dated 2000)

Tests used:
IL-4 production = test: Test 1: inhibition of IL-4 production in human T-cell strain ATL-16T(-) stimulated with PMA (R&D Systems EIA); type: cell-based; conditions: ATL-16T(-) 1×10^6 cells/0.5 ml/well, 20 nM PMA, 48 hours, read-out: Inhibition rate of IL-4 production; for inhibition at 10 µM: 10^-5 M; for inhibition at 1 µM: 10^-6 M; for inhibition at 0.1 µM: 10^-7 M; for inhibition at 0.01 µM: 10^-8 M
Protocol: Test 1: Test on the inhibition of IL-4 production
Into individual wells of a 48-well microplate, the human T-cell strain ATL-16T(-) was poured at a concentration of 1×10^6 cells/0.5 ml/well (n=3), followed by the addition of a stimulator (20 nM of PMA) and a medicament at the same time. The resulting mixture was incubated in 5% CO2 at 37° C. for 48 hours. After incubation, 100 μl of the supernatant were collected and subjected to measurement by a human IL-4 EIA kit (R&D SYSTEMS, INC.). The inhibition rate was calculated according to the following formula. [formula]

IL-5 production = test: Test 3: inhibition of IL-5 production in human PBMC stimulated with ConA; type: cell-based; conditions: 10^-6 M, 10 μg/ml ConA, 48 hours, read-out: Inhibition rate of IL-5 production
Protocol: Test 3: Test on the inhibition of IL-5 production
The peripheral blood was collected from a normal volunteer and peripheral blood mononuclear cells (PBMC) of the human peripheral blood were separated therefrom by the specific gravity centrifugation method. They were suspended in an AIM-V medium and their cell count was adjusted. To individual wells of a 96-well incubation plate, 1×10^6 cells/ml of PBMC were poured, followed by the addition of a stimulator (10 μg/ml of ConA) and a medicament. The resulting mixture was incubated in 5% CO2 at 37° C. for 48 hours. After incubation, 50 μl of the supernatant were collected and subjected to measurement by a human IL-5 EIA kit (BIO SOURCE, INC.). The inhibition rate was calculated according to the following formula. [formula]

Row | Structure (SMILES) | inhibition at 10 µM (IL-4 production) | inhibition at 1 µM (IL-4 production) | inhibition at 0.1 µM (IL-4 production) | inhibition at 0.01 µM (IL-4 production) | inhibition at 1 µM (IL-5 production)
1 | COc1cnc(/C=C/C(=O)c2ccccc2)cc1OC1CCCC1 [Ex. 2, 4-Cyclopentyloxy-5-methoxy-2-(3-oxo-3-phenyl-1-propenyl)pyridine] | 113% | 103% | 93.5% | 82.8% | 93.4%
2 | COc1cnc(/C=C/C(=O)c2ccccc2)cc1OCc1ccccc1 [Ex. 3, 4-Benzyloxy-5-methoxy-2-(3-oxo-3-phenyl-1-propenyl)pyridine] | 98.9% | 81.1% | 75.9% | 60% | 65.8%
3 | COCOc1cc(/C=C/C(=O)c2ccccc2)ncc1OC [Ex. 4, 5-Methoxy-4-methoxymethyloxy-2-(3-oxo-3-phenyl-1-propenyl)pyridine] | 86.2% | 75.2% | 67.9% | 57.4% | 60.2%
4 | COCOc1cnc(/C=C/C(=O)c2ccccc2)cc1OCOC [Ex. 5, 4,5-Bis(methoxymethyloxy)-2-(3-oxo-3-phenyl-1-propenyl)pyridine] | 104% | 90% | 74% | 50.9% | 89.3%
5 | COc1cc(/C=C/C(=O)c2ccccc2)ncc1OC(C)=O [Ex. 6, 5-Acetoxy-4-methoxy-2-(3-oxo-3-phenyl-1-propenyl)pyridine] | 102% | 86.1% | 75.2% | 58.8% | 67%
6 | COc1cnc(/C=C/C(=O)c2ccccc2)cc1OC(C)=O [Ex. 7, 4-Acetoxy-5-methoxy-2-(3-oxo-3-phenyl-1-propenyl)pyridine] | 91.8% | 79.8% | 76.4% | 63.9% | 94.2%
7 | CC(=O)Oc1cnc(/C=C/C(=O)c2ccccc2)cc1OC(C)=O [Ex. 8, 4,5-Diacetoxy-2-(3-oxo-3-phenyl-1-propenyl)pyridine] | 94.3% | 88% | 76.2% | 60.2% | 75.3%
8 | CCCCCC(=O)/C=C/c1cc(OC2CCCC2)c(OC)cn1 [Ex. 9, 4-Cyclopentyloxy-5-methoxy-2-(3-oxo-1-octenyl)pyridine] | 94.6% | 92.7% | 86.5% | 70.7% | 82.5%
9 | COc1cnc(/C=C/C(=O)C2CCCC2)cc1OC1CCCC1 [Ex. 10, 2-(3-Cyclopentyl-3-oxo-1-propenyl)-4-cyclopentyloxy-5-methoxypyridine] | 93.6% | 83.5% | 83.2% | 47.8% | 62.9%
10 | CCCCCC(=O)/C=C/c1cc(OC(C)=O)c(OC(C)=O)cn1 [Ex. 11, 4,5-diacetoxy-2-(3-oxo-1-octenyl)pyridine] | 94.1% | 87.2% | 79.6% | 78.9% | 77.3%
11 | CCOC(=O)CCCCCOc1cc(/C=C/C(=O)c2ccccc2)ncc1OC [Ex. 12, Ethyl 6-[5-methoxy-2-(3-oxo-3-phenyl-1-propenyl)-4-pyridyloxy]hexanoate] | 78.6% | 61.6% | 52.9% | 43% | 72.4%
12 | CCCCCC(=O)/C=C/c1cc(OCCCC(=O)OCC)c(OC)cn1 [Ex. 13, Ethyl 4-[5-methoxy-2-(3-oxo-1-octenyl)-4-pyridyloxy]butanoate] | 87.9% | 77% | 68.7% | 62.3% | 80.9%
13 | COC(=O)CCCOc1cc(/C=C/C(=O)c2ccccc2)ncc1OC [Ex. 16, Methyl 4-[5-methoxy-2-(3-oxo-3-phenyl-1-propenyl)-4-pyridyloxy]butanoate] | 90.1% | 82.1% | 81.6% | 76.8% | 79.4%
